This is an account of results in patent US20180141911A1, “Quinoline Derivatives for Diagnosis and Treatment of Alzheimer's Disease” (Northeastern University, priority 2015, published 2018).

One data set relates to tau and Aβ aggregates. Conditions: post-mortem AD brain tissues; cited from earlier work.
For data set [1] the following is noted: normal subjects, nonhuman primates; cited from earlier work.

Broadly, the melting point is the temperature of the solid-liquid transition. `Brc1cnc2c(OCc3ccccc3)cccc2c1` gave a melting point of 120 °C.

Turning to `Oc1cccc2cccnc12` [8-Hydroxyquinoline], in the data set with tau and Aβ aggregates, the “binding to tau and Aβ aggregates” value was “bind to both tau and Aβ aggregates”.

Turning to `Oc1cccc2ccc([18F])nc12` [[^18F]-CABS13, [^18F]-2-fluoro-8-hydroxyquinoline], in data set [1], the brain penetration entry was “poor brain penetration” and the “conversion to a polar metabolite” value is recorded as “rapid, high conversion to a polar metabolite”.

On to `Oc1c(I)cc(Cl)c2cccnc12` [clioquinol], for which the “binding to tau and Aβ aggregates” value in the data set on tau and Aβ aggregates was “bind to both tau and Aβ aggregates”.
